# Measurements published in patent US10894798B2, “Substituted dihydropyrrolopyrazole derivative” (UBE INDUSTRIES, LTD., priority 2015, dated 2021).
# Read-outs that look alike come from different tables or passages of the source.
# Columns and labels:
# [1] = test system: human large intestine cancer cell (HCT 116) tumor; test: Tumor growth inhibition test in HCT 116-subcutaneously transplanted nude mouse; type: in vivo; conditions: dose of 100 mg/kg, repeated oral administration, HCT-116 in female BALB nude mice, control group = 100%, read-out: rate of suppression of tumor volume
# Description: A human large intestine cancer cell line (HCT-116) was cultured in a McCoy's 5A medium containing 10% FBS and 1% penicillin/streptomycin/amphotericin B and adjusted to 1.0×10^8 cells/mL with PBS or Hanks solution (HBSS(−)). The prepared cell suspension was subcutaneously injected at 0.1 mL/mouse to the right abdomens of female BALB nude mice (supplied by Charles River Laboratories Japan, Inc.). After rearing for a certain period, the long diameter (mm) and short diameter (mm) of tumor were measured with electronic calipers, and the tumor volume was calculated according to the following expression: Tumor volume (mm^3)=(Long diameter)×(Short diameter)×(Short diameter)×0.5
# Individuals whose tumor volume was within the range of 50 to 200 mm^3 were selected and grouped such that the tumor volume was almost equivalent, then a test compound or only a solvent was orally administered in a repeated manner, and the body weights and tumor volume were measured. A test compound was suspended in a 0.5 w/v % aqueous methylcellulose solution (0.5% MC) (manufactured by Wako Pure Chemical Industries, Ltd.) and orally administered at 10 mL/kg in a repeated manner. When the tumor volume of the control group was defined as 100%, the rate of suppression of tumor volume (%) at each dose of the test compound was calculated.
# PLK1 = target: T1, PLK1 (Homo sapiens, UniProt P53350); test: PLK1 enzyme (polo-like kinase) inhibition test; type: biochemical; conditions: [γ-33P]ATP, casein substrate; Ki=IC50/(1+S/Km); read-out: Ki value of PLK1 inhibitory activity
# T1 construct: purchased Carna Biosciences, Inc. 05-157
# How it was run: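 Recombinant PLK1 phosphorylates casein with [γ-^33P]ATP in MOPS buffer (pH 7.0) containing DTT and magnesium acetate, 20 min at 30° C. Reaction stopped with TCA; washed precipitate counted by liquid scintillation. IC50 for inhibition of ^33P incorporation into casein, converted to Ki via Ki=IC50/(1+S/Km).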
# [2] = test system: human large intestine cancer cell line (HCT-116); test: Human large intestine cancer (HCT-116) cell growth inhibition test; type: cell-based
# How it was run: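 HCT-116 cells were seeded at 0.5 to 2.0×10^3 cells/well in McCoy's 5A with 10% FBS and dosed with compound at 0.1% final DMSO after overnight culture. Growth was measured by sulforhodamine B absorbance after 3 days. GI50 was calculated from the inhibition rate at each concentration.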
# CDK7 = target: T2, CDK7 (Homo sapiens, UniProt P50613); test: CDK7 enzyme inhibition test; type: biochemical; conditions: [γ-33P]ATP, MBP substrate, 60 min preincubation at 25°C; Ki=IC50/(1+S/Km); read-out: Ki value of CDK7 inhibitory activity
# T2 construct: purchased Carna Biosciences, Inc. 04-108
# How it was run: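 Commercial human CDK7 with myelin basic protein substrate in HEPES pH 7.4 buffer with DTT, Triton X-100, MgCl2; compound preincubated 60 min at 25° C, then reaction run 20 min at 30° C after adding [γ-^33P]ATP (500 μM solution). TCA-precipitated ^33P-MBP counted by scintillation; IC50 converted to Ki via Ki=IC50/(1+S/Km).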
# CDK2 = target: T3, CDK2 (Homo sapiens, UniProt P24941); test: CDK2 enzyme inhibition test; type: biochemical; conditions: [γ-33P]ATP, MBP substrate; Ki=IC50/(1+S/Km); read-out: Ki value of CDK2 inhibitory activity
# T3 construct: purchased Invitrogen Corp. PV3267
# How it was run: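 Commercial CDK2 phosphorylated MBP with [γ-33P]ATP (500 μM solution before mixing) in HEPES pH 7.4 buffer with DTT, Triton X-100 and MgCl2 for 20 min at 30 °C. TCA-precipitated 33P-MBP was counted by scintillation to give the IC50. Ki = IC50/(1+S/Km), with S the ATP concentration in the reaction.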
# [3] = test system: ovary cancer cell line PA-1; test: Various human cancer cell growth inhibition test: PA-1; type: cell-based; conditions: ATPlite, read-out: GI50 value (concentration necessary for inhibiting 50% of cell growth)
# From the text: (§1) A breast cancer cell line BT-549 (obtained from American Type Culture Collection (ATCC)), a uterus cancer cell line C-33A (obtained from ATCC), an ovary cancer cell line PA-1 (obtained from ATCC), a large-cell lung cancer cell line NCI-H460 (obtained from ATCC), a small-cell lung cancer cell line NCI-H82 (obtained from ATCC), a kidney cancer cell line ACHN (obtained from ATCC), a pancreatic cancer cell line BxPC-3 (obtained from ATCC), a malignant melanoma cell line A375 (obtained from ATCC), a throat cancer cell line FaDu (obtained from ATCC), a medulloblastoma cell line Daoy (obtained from ATCC), a cutaneous epithelioid sarcoma cell line VA-ES-BJ (obtained from ATCC), a rhabdomyosarcoma cell line A-204 (obtained from ATCC), a prostate cancer cell line DU145 (obtained from ATCC), a bladder cancer cell line T24 (obtained from ATCC), a lymphoma cell line SR (obtained from ATCC), a neuroblastoma cell line SH-SY5Y (obtained from DS Pharma Biomedical Co., Ltd.), a liver cancer cell line HepG2 (obtained from DS Pharma Biomedical Co., Ltd.), a stomach cancer cell line HGC-27 (obtained from DS Pharma Biomedical Co., Ltd.), and a multiple myeloma cell line NCI-H929 (obtained from DS Pharma Biomedical Co., Ltd.) were used as human cancer cell lines.
# (§2) Each cell line was cultured in a cell culture medium recommended by ATCC or DS Pharma Biomedical Co., Ltd. and inoculated at 0.3 to 5.0×10^3 cells/well to a 96-well plate. The cells were cultured overnight in a carbon dioxide incubator of 37° C. containing 5% carbon dioxide. The medium was replaced with a fresh medium on the next day, then replaced with a mixed solution of a DMSO solution of a test compound with varying concentrations and a culture medium (final DMSO concentration: 0.1%), and left standing in a carbon dioxide incubator (day 0). IV-361, IV-379, IV-3, IV-215, IV-299, IV-669, IV-1049, and palbociclib (for comparison) were used as test compounds. For a control group, DMSO was added instead of the DMSO solution of the test compound to a cell culture medium (final DMSO concentration: 0.1%).
# (§3) After culture for a predetermined period, the ATP activity of BT-549, C-33A, PA-1, NCI-H460, NCI-H82, ACHN, BxPC-3, A375, FaDu, Daoy, VA-ES-BJ, A-204, DU145, T24, and SR was measured by using ATPlite (manufactured by PerkinElmer, Inc.). The ATP activity of SH-SY5Y, HepG2, HGC-27, and NCI-H929 was measured by using CellTiter-Glo (manufactured by Promega Corp.).
# (§4) The rate of inhibition of cell growth (%) was calculated according to the expression given below. Specifically, in the case where the difference between the ATP activity before culture (day 0) and the ATP activity after culture in the test compound-administered group is the same as the difference between the ATP activity before culture (day 0) and the ATP activity after culture in the control group, the rate of inhibition of cell growth is 0%. Rate of inhibition of cell growth=(1−((ATP activity of the test compound-administered group after culture)−(ATP activity of the test compound-administered group on day 0))/((ATP activity of the control group after culture)−(ATP activity of the control group on day 0)))×100
# (§5) The concentration of the test compound necessary for inhibiting 50% of cell growth (GI50 value) was calculated by using EXSUS (version 8.1.0, manufactured by CAC Exicare Corp.).
# [4] = test system: kidney cancer cell line ACHN; test: Various human cancer cell growth inhibition test: ACHN; type: cell-based; conditions: ATPlite, read-out: GI50 value (concentration necessary for inhibiting 50% of cell growth)
# From the text: as §1, §2, §3, §4, §5
# [5] = test system: large-cell lung cancer cell line NCI-H460; test: Various human cancer cell growth inhibition test: NCI-H460; type: cell-based; conditions: ATPlite, read-out: GI50 value (concentration necessary for inhibiting 50% of cell growth)
# From the text: as §1, §2, §3, §4, §5
# [6] = test system: pancreatic cancer cell line BxPC-3; test: Various human cancer cell growth inhibition test: BxPC-3; type: cell-based; conditions: ATPlite, read-out: GI50 value (concentration necessary for inhibiting 50% of cell growth)
# From the text: as §1, §2, §3, §4, §5
# [7] = test system: small-cell lung cancer cell line NCI-H82; test: Various human cancer cell growth inhibition test: NCI-H82; type: cell-based; conditions: ATPlite, read-out: GI50 value (concentration necessary for inhibiting 50% of cell growth)
# From the text: as §1, §2, §3, §4, §5
# [8] = test system: breast cancer cell line BT-549; test: Various human cancer cell growth inhibition test: BT-549; type: cell-based; conditions: ATPlite, read-out: GI50 value (concentration necessary for inhibiting 50% of cell growth)
# From the text: as §1, §2, §3, §4, §5
# [9] = test system: rhabdomyosarcoma cell line A-204; test: Various human cancer cell growth inhibition test: A-204; type: cell-based; conditions: A204, ATPlite, read-out: GI50 value (concentration necessary for inhibiting 50% of cell growth)
# From the text: as §1, §2, §3, §4, §5
# [10] = test system: throat cancer cell line FaDu; test: Various human cancer cell growth inhibition test: FaDu; type: cell-based; conditions: ATPlite, read-out: GI50 value (concentration necessary for inhibiting 50% of cell growth)
# From the text: as §1, §2, §3, §4, §5
# lymphoma cell line SR = test: Various human cancer cell growth inhibition test: SR; type: cell-based; conditions: ATPlite, read-out: GI50 value (concentration necessary for inhibiting 50% of cell growth)
# From the text: as §1, §2, §3, §4, §5
# [11] = test system: malignant melanoma cell line A375; test: Various human cancer cell growth inhibition test: A375; type: cell-based; conditions: A-375, ATPlite, read-out: GI50 value (concentration necessary for inhibiting 50% of cell growth)
# From the text: as §1, §2, §3, §4, §5
# [12] = test system: uterus cancer cell line C-33A; test: Various human cancer cell growth inhibition test: C-33A; type: cell-based; conditions: ATPlite, read-out: GI50 value (concentration necessary for inhibiting 50% of cell growth)
# From the text: as §1, §2, §3, §4, §5
# [13] = test system: human large intestine cancer cell line (HCT-116) tumor; test: In vivo tumor growth inhibition test for human large intestine cancer cell line by combined use with chemotherapeutic; conditions: Table 53; oxaliplatin 3 mg/kg/day intraperitoneal, alone
# [14] = HCT-116, 72 h, culture for 3 days, sulforhodamine B, read-out: GI50 value, HCT-116 cell growth inhibition
# T2 sequence (P50613 whole entry): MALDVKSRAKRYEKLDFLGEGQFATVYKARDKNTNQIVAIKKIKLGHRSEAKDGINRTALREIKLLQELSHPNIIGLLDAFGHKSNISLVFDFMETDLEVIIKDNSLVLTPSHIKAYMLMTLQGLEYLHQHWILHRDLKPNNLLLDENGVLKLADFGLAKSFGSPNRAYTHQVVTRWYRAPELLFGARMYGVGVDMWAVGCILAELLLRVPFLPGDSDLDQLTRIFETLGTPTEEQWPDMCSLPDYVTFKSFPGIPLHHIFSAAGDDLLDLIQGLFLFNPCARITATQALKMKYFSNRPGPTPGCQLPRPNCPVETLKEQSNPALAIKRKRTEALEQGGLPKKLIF
# T2 sequence (P51946 whole entry partner): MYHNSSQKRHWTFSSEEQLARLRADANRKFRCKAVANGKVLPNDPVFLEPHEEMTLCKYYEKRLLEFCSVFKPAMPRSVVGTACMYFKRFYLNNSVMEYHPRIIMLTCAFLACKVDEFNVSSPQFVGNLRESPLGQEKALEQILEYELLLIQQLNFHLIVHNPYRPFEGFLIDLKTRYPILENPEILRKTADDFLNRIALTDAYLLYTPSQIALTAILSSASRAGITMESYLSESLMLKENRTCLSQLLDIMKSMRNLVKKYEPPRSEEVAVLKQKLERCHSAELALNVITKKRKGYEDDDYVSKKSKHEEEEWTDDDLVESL
# T2 sequence (P51948 whole entry partner): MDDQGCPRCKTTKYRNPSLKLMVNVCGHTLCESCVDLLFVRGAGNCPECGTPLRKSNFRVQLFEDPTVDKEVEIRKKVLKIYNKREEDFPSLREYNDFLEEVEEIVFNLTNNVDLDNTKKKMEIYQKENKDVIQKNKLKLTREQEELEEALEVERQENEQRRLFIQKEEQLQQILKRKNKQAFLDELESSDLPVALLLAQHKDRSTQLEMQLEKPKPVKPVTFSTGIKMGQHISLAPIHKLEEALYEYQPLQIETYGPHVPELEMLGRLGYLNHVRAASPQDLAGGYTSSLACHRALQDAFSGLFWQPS
# T1 sequence (P53350 whole entry): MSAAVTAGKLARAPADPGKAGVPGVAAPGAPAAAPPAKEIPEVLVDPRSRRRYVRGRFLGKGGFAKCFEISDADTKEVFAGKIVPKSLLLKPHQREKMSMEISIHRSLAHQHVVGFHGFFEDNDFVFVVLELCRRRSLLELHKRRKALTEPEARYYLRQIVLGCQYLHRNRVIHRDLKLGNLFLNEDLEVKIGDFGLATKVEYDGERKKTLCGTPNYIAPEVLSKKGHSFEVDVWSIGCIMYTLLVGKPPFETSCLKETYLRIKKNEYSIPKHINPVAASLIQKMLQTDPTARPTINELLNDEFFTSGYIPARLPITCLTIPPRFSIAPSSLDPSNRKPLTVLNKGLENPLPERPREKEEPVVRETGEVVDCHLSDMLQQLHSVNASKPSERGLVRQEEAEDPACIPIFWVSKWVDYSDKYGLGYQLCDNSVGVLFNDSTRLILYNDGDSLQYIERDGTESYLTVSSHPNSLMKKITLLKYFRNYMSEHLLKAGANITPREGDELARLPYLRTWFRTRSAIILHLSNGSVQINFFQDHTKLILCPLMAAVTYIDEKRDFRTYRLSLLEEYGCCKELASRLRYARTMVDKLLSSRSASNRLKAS
Ki (PLK1) [nM],"GI50 [2, 14] [nM]",Ki (CDK7) [nM],Ki (CDK2) [nM],SMILES,further results
≥ 5000,≤ 100,≤ 50,,"CC1(C)c2[nH]nc(NC(=O)C3([Si](C)(C)C)CCC3)c2CN1C(=O)Nc1c(F)cccc1Br [IV-121, N-(2-Bromo-6-fluorophenyl)-6,6-dimethyl-3-[1-(trimethylsilyl)cyclobutanecarboxamido]-4,6-dihydropyrrolo[3,4-c]pyrazole-5 (1H)-carboxamide]",inhibition in vivo at 100 mg/kg [1]: ≥ 50%
,≤ 100,≤ 50,≥ 1000,"CC1(C)c2[nH]nc(NC(=O)C3([Si](C)(C)C)CCC3)c2CN1C(=O)Nc1ccccc1 [IV-1, 6,6-Dimethyl-N-phenyl-3-[1-(trimethylsilyl)cyclobutanecarboxamido]-4,6-dihydropyrrolo[3,4-c]pyrazole-5(1H)-carboxamide]",inhibition in vivo at 100 mg/kg [1]: ≥ 50%
,,,,"CC(=O)c1c(C)c2cnc(Nc3ccc(N4CCNCC4)cn3)nc2n(C2CCCC2)c1=O [Palbociclib, palbociclib, reference compound]","GI50 [3]: < 300 nM; GI50 [4]: < 300 nM; GI50 [5]: < 300 nM; GI50 [6]: < 300 nM; GI50 ([2]; HCT-116 (row of Table 50), read-out: GI50 value (concentration necessary for inhibiting 50% of cell growth)): 300 to 1000 nM; GI50 [7]: ≥ 1000 nM; GI50 [8]: ≥ 1000 nM; GI50 [9]: ≥ 1000 nM; GI50 [10]: ≥ 1000 nM; GI50 (lymphoma cell line SR): < 300 nM; GI50 [11]: < 300 nM; GI50 [12]: ≥ 1000 nM"
≥ 5000,≤ 100,≤ 50,≥ 1000,"Cc1cc2ccc(F)c(NC(=O)N3Cc4c(NC(=O)C5([Si](C)(C)C)CCC5)n[nH]c4C3(C)C)c2o1 [IV-1059, N-(6-Fluoro-2-methylbenzofuran-7-yl)-6,6-dimethyl-3-[1-(trimethylsilyl)cyclobutanecarboxamido]-4,6-dihydropyrrolo[3,4-c]pyrazole-5(1H)-carboxamide]",
≥ 5000,≤ 100,≤ 50,≥ 1000,"Cc1c(F)cccc1NC(=O)N1Cc2c(NC(=O)C3([Si](C)(C)C)CCC3)n[nH]c2C1(C)C [IV-357, N-(3-Fluoro-2-methylphenyl)-6,6-dimethyl-3-[1-(trimethylsilyl)cyclobutanecarboxamido]-4,6-dihydropyrrolo[3,4-c]pyrazole-5 (1H)-carboxamide]",
≥ 5000,≤ 100,≤ 50,≥ 1000,"CC1(C)c2[nH]nc(NC(=O)C3([Si](C)(C)C)CCC3)c2CN1C(=O)Nc1c(Cl)cccc1Br [IV-207, N-(2-Bromo-6-chlorophenyl)-6,6-dimethyl-3-[1-(trimethylsilyl)cyclobutanecarboxamido]-4,6-dihydropyrrolo[3,4-c]pyrazole-5 (1H)-carboxamide]",
≥ 5000,≤ 100,≤ 50,≥ 1000,"Cc1ccc(F)c(NC(=O)N2Cc3c(NC(=O)C4([Si](C)(C)C)CCC4)n[nH]c3C2(C)C)c1Cl [IV-703, N-(2-Chloro-6-fluoro-3-methylphenyl)-6,6-dimethyl-3-[1-(trimethylsilyl)cyclobutanecarboxamido]-4,6-dihydropyrrolo[3,4-c]pyrazole-5(1H)-carboxamide]",
,,,,"O=C1[O][Pt]2([NH][C@@H]3CCCC[C@H]3[NH]2)[O]C1=O [Oxaliplatin, oxaliplatin, reference compound]",Rate of suppression of tumor volume [13]: 44%
≥ 5000,≤ 100,≤ 50,≥ 1000,"CC1(C)c2[nH]nc(NC(=O)C(C)(C)[Si](C)(C)C)c2CN1C(=O)Nc1c(F)cccc1OC(F)F [II-169, N-[2-(Difluoromethoxy)-6-fluorophenyl]-6,6-dimethyl-3-[2-methyl-2-(trimethylsilyl)propanamido]-4,6-dihydropyrrolo[3,4-c]pyrazole-5(1H)-carboxamide]",
≥ 5000,≤ 100,≤ 50,≥ 1000,"CCc1cccc(F)c1NC(=O)N1Cc2c(NC(=O)C3([Si](C)(C)C)CC3)n[nH]c2C1(C)C [III-137, N-(2-Ethyl-6-fluorophenyl)-6,6-dimethyl-3-[1-(trimethylsilyl)cyclopropanecarboxamido]-4,6-dihydropyrrolo[3,4-c]pyrazole-5 (1H)-carboxamide]",
